Test results: US9420813B2, “Sweetener” (AJINOMOTO CO., INC., priority 2007, dated 2016)
*1 amine or outer side, *2 acyl side, *3 side chain or, on linkers, in order; H or OH if unused. Where no end group is shown, it is not given here. [ ]: non-standard residue; d: D form. γGlu = O=C(O)[C@H](CCC(=O)[*:2])N[*:1]

What was measured:
[1] = Quantitative sensory evaluation, improvement of body taste and bitterness of combined high-intensity sweeteners (Examples 2 and 4); set-up: species or system human; conditions: for Bitterness: control 0, <0 improved; for Bitterness / Body taste: n=12; for Body taste: control 0, >0 improved; for improvement of the body taste (conclusion in words): combined sweetener solutions, Tables 9 to 12 and 16 to 19
Method: The quantitative sensory evaluation test was performed as follows. As for a combination standard solution of each sweeteners, the following compounds were used. The following standard solutions have been adjusted so they each have almost the same degree of sweetness.
ii) APM (0.02 g/dl)+Ace-K (0.005 g/dl) [APM:Ace-K=8:2 as a ratio of degrees of sweetness]
iii) Sucralose (0.0058 g/dl)+Ace-K (0.0075 g/dl) [sucralose:Ace-K=7:3 as a ratio of degrees of sweetness]
iv) APM (0.0125 g/dl)+sucralose (0.0042 g/dl) [APM:sucralose=1:1 as a ratio of degrees of sweetness]
v) APM (0.0125 g/dl)+sucralose (0.0021 g/dl)+Ace-K (0.0063 g/dl) [APM:sucralose:Ace-K=2:1:1 as a ratio of degrees of sweetness]
To distilled water containing each of the sweeteners, γ-Glu-Cys-Gly (glutathione), γ-Glu-Val-Gly or γ-Glu-Abu-Gly was added and mixed at concentrations of 0.0001 to 1 g/dl, and then the degree of the improvement of the body taste and the improvement of the bitterness on the sweet taste was measured. The addition effect of the peptides on each of the high-intensity sweeteners was evaluated with reference to sucrose.
When a mixture is more acidic than the standard control solution, the pH of the mixture was adjusted with NaOH to achieve a range of pH±0.2 with respect to the pH of the standard solution before use.
The sensory evaluation for the improvement of the body taste was performed with n=12 on the basis of the following criteria: a control (obtained by adding distilled water only and without adding glutathione and/or the peptide) was defined as 0, and by using the control as a standard, the follow were defined: weak: −2 points; slightly weak: −1 point; slightly strong: 1 point, and strong: 2 points. A higher score than 0 means that the sample has a body taste-improving effect.
Alternatively, the sensory evaluation for the improvement of the bitterness was performed with n=12 on the basis of the following criteria: a control (obtained by adding distilled water only and without adding glutathione and/or the peptide) was defined as 0, and by using the control as a standard, the following were defined: weak: −2 points; slightly weak: −1 point; slightly strong: 1 point, and strong: 2 points. A lower score than 0 means that the sample improves the bitterness.
The quantitative sensory evaluation test was performed as follows. As for combination standard solution of each sweeteners, the following compound was used. The following standard solutions have been adjusted so they each have almost the same degree of sweetness.
To distilled water containing each sweetener mentioned above, γ-Glu-Val-Gly or cinacalcet was added and mixed at concentrations of 0.0001 to 1 g/dl, and then each degree of the improvement of the body taste and the improvement of the bitterness on the sweet taste was measured. The addition effect of the sample on each of the high intensity sweeteners was evaluated with reference to sucrose.
(§1) When a mixture is more acidic than the standard control solution, the pH of the sample was adjusted with NaOH to achieve a range of pH±0.2 with respect to the pH of the standard solution before use.
The sensory evaluation for the improvement of the body taste was performed with n=12 on the basis of the following criteria: a control (obtained with adding distilled water only and without adding the sample) was defined as 0, and by using the control as a standard, the following were defined: weak: −2 points; slightly weak: −1 point; slightly strong: 1 point, and strong: 2 points. A higher score than 0 means that the sample improves the body taste.
Alternatively, the sensory evaluation for the improvement of the bitterness was performed with n=12 on the basis of the following criteria: a control (obtained with adding distilled water only and without adding the sample) was defined as 0, and by using the control as a standard, the following were defined: weak: −2 points; slightly weak: −1 point; slightly strong: 1 point, and strong: 2 points. […]

[2] = Quantitative sensory evaluation, body taste and bitterness in drinkable yogurt containing high intensity sweetener (Example 5); set-up: species or system human; conditions: for Bitterness: control 0, <0 improved; for Bitterness / Body taste: n=12; for Body taste: control 0, >0 improved; for improvement of the body taste (conclusion in words): drinkable yogurt with APM, Table 20
Method: The quantitative sensory evaluation test was performed as follows. As for a drinkable yogurt standard solution, the following compounds were used. The following standard solutions have been adjusted so they each have almost the same degree of sweetness.
To a drinkable yogurt containing each of the sweeteners, γ-Glu-Val-Gly or cinacalcet was added and mixed at concentrations 0.0001 to 1 g/dl, and then each degree of the improvement of the body taste and the improvement of the bitterness on the sweet taste was measured.
as §1
The sensory evaluation for the improvement of the body taste was performed with n=12 on the basis of the following criteria: a control (obtained with adding distilled water only and without adding the sample) was defined as 0, and by using the control as a standard, the following were defined: weak: −2 points; slightly weak: −1 point; slightly strong: 1 point, and strong: 2 points. A higher score than 0 means that the sample has a body taste-improving effect.
On the other hand, the sensory evaluation for the improvement of the bitterness was performed with n=12 on the basis of the following criteria: a control (obtained with adding distilled water only and without adding the sample) was defined as 0, and by using the control as a standard, the following were defined: weak: −2 points; slightly weak: −1 point; slightly strong: 1 point, and strong: 2 points. A lower score than 0 means that the sample improves the bitterness.

[3] = APM 0.0125 + sucralose 0.0021 + Ace-K 0.0063 g/dl (2:1:1), sample 0.0001 g/dl
[4] = APM 0.0125 + sucralose 0.0021 + Ace-K 0.0063 g/dl (2:1:1), sample 0.001 g/dl
[5] = APM 0.0125 g/dl + sucralose 0.0042 g/dl (1:1), sample 0.0001 g/dl
[6] = APM 0.0125 g/dl + sucralose 0.0042 g/dl (1:1), sample 0.001 g/dl
[7] = APM 0.02 g/dl + Ace-K 0.005 g/dl (8:2), sample 0.0001 g/dl
[8] = APM 0.02 g/dl + Ace-K 0.005 g/dl (8:2), sample 0.001 g/dl
[9] = APM:Ace-K = 8:2, sample 0.0001 g/dl
[10] = sucralose 0.0058 g/dl + Ace-K 0.0075 g/dl (7:3), sample 0.0001 g/dl
[11] = sucralose 0.0058 g/dl + Ace-K 0.0075 g/dl (7:3), sample 0.001 g/dl
[12] = drinkable yogurt with APM 0.025 g/dl, sample 0.0001 g/dl
[13] = drinkable yogurt with APM 0.025 g/dl, sample 0.001 g/dl

Row | Compound | Bitterness [1, 3] [points] | Body taste [1, 3] [points] | Bitterness [1, 4] [points] | Body taste [1, 4] [points] | Bitterness [1, 5] [points] | Body taste [1, 5] [points] | Bitterness [1, 6] [points] | Body taste [1, 6] [points] | Bitterness [1, 7] [points] | Body taste [1, 7] [points] | Bitterness [1, 8] [points] | Body taste [1, 8] [points] | Taste profile [1, 9] | improvement of the body taste (conclusion in words) [1] | Bitterness [1, 10] [points] | Body taste [1, 10] [points] | Bitterness [1, 11] [points] | Body taste [1, 11] [points] | Bitterness [2, 12] [points] | Body taste [2, 12] [points] | other results
1 | C[C@@H](NCCCc1cccc(C(F)(F)F)c1)c1cccc2ccccc12 [Cinacalcet, (R)—N-(3-(3-(trifluoromethyl)phenyl)propyl)-1-(1-naphthyl)ethylamine, reference compound] | −0.2 | 0.5 | −0.4 | 1.1 | −0.2 | 0.5 | −0.2 | 1.1 | −0.1 | 0.5 | −0.3 | 1.1 | Sweet taste with growth is enhanced in middle | improves the body taste at almost the same concentration | −0.1 | 0.8 | −0.3 | 1.5 | −0.2 | 0.5 | Taste profile ([1]; APM:Ace-K = 8:2, sample 0.001 g/dl): Sweet taste with growth is enhanced in middle; Taste profile ([1]; APM:sucralose:Ace-K = 2:1:1, sample 0.0001 g/dl): Harmony and richness are present in middle; Taste profile ([1]; APM:sucralose:Ace-K = 2:1:1, sample 0.001 g/dl): Harmony and richness are present in middle; Bitterness [2, 13]: −0.1 points; Body taste [2, 13]: 1.6 points; improvement of the body taste (conclusion in words) [2]: improves the body taste at almost the same concentration
2 | [γGlu]-Val-Gly | −0.3 | 0.6 | −0.7 | 1.3 | −0.2 | 0.6 | −0.4 | 1.3 | −0.3 | 0.6 | −0.7 | 1.3 | Sweet taste with growth is enhanced in middle | improves the body taste at almost the same concentration | −0.3 | 0.7 | −0.7 | 1.3 | −0.2 | 0.5 | Taste profile [2, 13]: Growth is present in middle taste. Sweet taste; Bitterness [2, 13]: −0.5 points; Body taste [2, 13]: 1.4 points; improvement of the body taste (conclusion in words) [2]: improves the body taste at almost the same concentration
